Bridge positions count the residues as written; N and C are the ends. Square brackets hold non-standard residues; d marks the D form. Ends that are not written are not given here. Peptide text beside a SMILES is read from it. Sar = CNCC(=O)O

Data set [1] deals with C. albicans, strain 820. It is filed as cell-based, Candida albicans. Particulars: for activity against C. albicans in NaCl (FIG. 5a): in the presence of 100 mM NaCl; for antifungal activity against Candida albicans (FIG. 4c): radial diffusion, underlay agar pH 6.5.
Description: Similarly, using C. albicans as a target organism, underlayers were prepared with 10 mM sodium phosphate with and without 10% normal human serum.
Data set [2] relates to Trichomonas vaginallis strain C1 (ATCC 30001); strains MR and TV. The experiment in a line: Trichomonas vaginallis exposure assay.
In data set [3] the test system is E. coli ML-35P. The experiment in a line: Radial diffusion assay in agarose gels, E. coli. It is filed as cell-based. To be noted: for activity against E. coli in NaCl (FIG. 5b): in the presence of 100 mM NaCl; for antibacterial activity against E. coli (FIG. 4a): radial diffusion, underlay agar pH 6.5.
Description: Aliquots (66 μl) of each fraction were dried by vacuum centrifugation and resuspended in 6.6 μl of 0.01% acetic acid. […] The units of activity in the radial diffusion assay were measured as described; 10 units correspond to a 1 mm diameter clear zone around the sample well.
Data set [4] concerns the target human leukocyte cathepsin G (Homo sapiens, UniProt P08311). The format is in vitro ADME. To be noted: pH 7.
The test system of data set [5] is N. gonorrhoeae strains FA 19 and F 62.
For data set [6], the system named is Listeria monocytogenes, strain EGD. Briefly: Radial diffusion assay in agarose gels, L. monocytogenes. It is filed as cell-based. Particulars: for antibacterial activity against Listeria monocytogenes (FIG. 4b): radial diffusion, underlay agar pH 6.5. Here is the method:
Aliquots (66 μl) of each fraction were dried by vacuum centrifugation and resuspended in 6.6 μl of 0.01% acetic acid. Five μl samples of this concentrate were tested for antimicrobial activity against E. coliML-3, L. monocytogenes, strain EGD and C. albicans, strain 820, using radiodiffusion and gel overlay techniques as described by Lehrer, R. I. et al. J Immunol Meth (1991) 137:167-173. […] The units of activity in the radial diffusion assay were measured as described; 10 units correspond to a 1 mm diameter clear zone around the sample well. Activity was found in a large number of fractions.
The radial diffusion assay in agarose gels described in Example 1 was also used to test the activity of the purified protegrins. FIGS. 4a, 4b and 4c show the results against three test organisms in units described as above.
The antimicrobial activity of the linearalized forms was also compared with that of the native protegrins. Both linearalized and cyclic forms of the protegrins tested continue to show antimicrobial activity, although the effectiveness of these peptides as antimicrobials depends on the nature of the target organism and on the test conditions. The antimicrobial activity of native PG-1 and its linearalized form (cam-PG-1) and PG-3 and its linearalized form (cam-PG-3) were tested according to the procedure set forth in Example 1 as described by Lehrer, R. I. et al. J Immunol Meth (1991) 137:167-173.
Using standard solid phase techniques, a protegrin having the amino acid sequence of PG-1, but wherein every amino acid is in the D form was prepared. This form of protegrin was tested against E. coli, L. monocytogenes, C. albicans and other microbes in the absence and presence of protease and otherwise as described for the radiodiffusion assay in agarose gels set forth in Example 1.
The kite and bullet PG-1 compounds prepared in Example 12 were tested for antimicrobial activity using the radial diffusion assay described in Example 1 as published by Lehrer, R. I. et al., J Immunol Meth (1991) 137:167-173, except that the underlay agars contained […] sodium phosphate buffer with a final pH of 7.4. As described in Example 1, 0.3 mg/ml tripticase soy broth powder and 1% agarose were used as well in the underlay agar. In some cases 100 mM NaCl or RPMI plus 2.5% normal human serum (NHS) was added to the agar.

For data set [7], the system named is pepsin. To be noted: 4 hours at pH 2.0 with 0.5 μg/ml pepsin, then neutralized.
The test system of data set [8] is Staphylococcus aureus. Briefly: Radial diffusion assay in agarose gels, S. aureus. The format is cell-based.
In data set [9] the test system is HIVJR-CSF and HIVJR-FL. The experiment in a line: HIV infection of human peripheral blood mononuclear cells, p24 antigen.
Description: Briefly, the mononuclear cell fraction is recovered from normal donor leukopacs from the American Red Cross using a Ficoll-hypaque density gradient. The mononuclear cells are resuspended at 1×10^6 cells per ml in RPMI 1640 medium with 20% fetal bovine serum, 1% penn/strep with fungizone and 0.5% PHA and incubated 24 hours at 37° C. in 5% CO2. The cells are centrifuged, washed and then expanded for 24 hours in growth medium.
Non-laboratory adapted, cloned HIVJR-CSF and HIVJR-FL were electroporated into the human peripheral blood mononuclear cells prepared as described above. Titers were determined and in general, multiplicities of infection (MOI) of about 4,000 infectious units per cell are used (which corresponds to 25-40 picograms per ml HIV p24 antigen in the supernatant).
In the assay, the HIV stocks prepared as above were diluted to the correct MOI and the PBM are added to 24 well plates at a concentration of 2×10^6 per ml. One μl total volume is added to each well. The peptide to be tested is added in growth medium to achieve the final desired concentration. Then the appropriate number of MOI are added. To assay viral growth, 200 μl of supernatant is removed on days 3 and 7 and the concentration of p24 antigen is determined using a commercial assay (Coulter Immunology, Hialeah, Fla.). Controls include duplicate wells containing cells alone, cells plus peptide at 5 μg/ml cells with virus but not peptide and cells with virus in the presence of AZT at 10^−5 M-10^−8 M.
Data set [10] relates to lipid polysaccharide (LPS) of E. coli strain 0.55B5. Briefly: Limulus amebocyte lysate (LAL) test for endotoxin binding. It is filed as biochemical. Particulars: for gel formation in LAL test: LPS 0.05 endotoxin unit/ml.
Data set [11] deals with K. pneumoneae 270. The experiment in a line: Radial diffusion assay in agarose gels, K. pneumoniae. The format is cell-based.
Data set [12] deals with T. pallidum. Briefly: Treponema pallidum immobilization assay. It is filed as cell-based.
Description: Bacteriocidal activity against this organism, which is the etiologic agent of syphilis, was also tested. Peptides were evaluated at a series of concentrations of 1.758 μg to 56.25 μg in 90 μl of unheated normal rabbit serum. The serum served as a nutrient for the spirochetes to allow their survival during incubation as well as providing a source of complement. Ten μl of a suspension of T. pallidum containing about 5×10^7/μl organisms was added to each tube and the mixtures with the appropriate peptides were incubated at 34° C. under 95 k N2 and 5% CO2. At time zero, just prior to incubation, 4 hours and 16 hours, 25 randomly selected organisms were examined for the presence or absence of motility. The 50 k immobilizing end point (IE50) was calculated to indicate the concentration needed to immobilize 50% of the spirochetes.
Data set [13] has as its target human leukocyte elastase (Homo sapiens, UniProt P08246). The format is in vitro ADME. To be noted: pH 7.
The test system of data set [14] is L. monocytogenes. Briefly: Radial diffusion assay in 25 mM borate buffer, L. monocytogenes. It is filed as cell-based. Particulars: listed as nPG-3.
For data set [15], the system named is E. coli. Briefly: Antimicrobial activity with and without lysozyme in borate buffered saline. It is filed as cell-based. To be noted: presence vs absence of lysozyme. An excerpt:
This effect was more pronounced when the PG-3 was autoclaved and similar patterns were obtained for both the free-acid form and the amide. Accordingly, the protegrins may be used as preservatives in such compositions or as antimicrobials for treatment of eye infections.

The subject of data set [16] is Candida albicans. The experiment in a line: Radial diffusion assay in 25 mM borate buffer, Candida albicans. The format is cell-based. To be noted: listed as nPG-3.
The test system of data set [17] is methicillin resistant Staphylococcus aureus (MRSA). Briefly: Minimal inhibitory concentration, MRSA. The format is cell-based. Here is the method:
(§1) The minimal inhibitory concentrations (MICs) of a variety of protegrins were determined against the following organisms: methicillin resistant Staphylococcus aureus (MRSA), Pseudomonas aeruginosa (Psa), vancomycin resistant Enterococcus fecium (VREF), Candida albicans (Candid) and Escherichia coli (E. Co), and are shown in Table 9.

In data set [18] the test system is vancomycin resistant Enterococcus fecium (VREF). The experiment in a line: Minimal inhibitory concentration, VREF. The format is cell-based. Here is the method:
as §1

The test system of data set [19] is Pseudomonas aeruginosa (Psa). Briefly: Minimal inhibitory concentration, Psa. The format is cell-based. Here is the method: as §1

human leukocyte elastase, sequence (P08246 30-267): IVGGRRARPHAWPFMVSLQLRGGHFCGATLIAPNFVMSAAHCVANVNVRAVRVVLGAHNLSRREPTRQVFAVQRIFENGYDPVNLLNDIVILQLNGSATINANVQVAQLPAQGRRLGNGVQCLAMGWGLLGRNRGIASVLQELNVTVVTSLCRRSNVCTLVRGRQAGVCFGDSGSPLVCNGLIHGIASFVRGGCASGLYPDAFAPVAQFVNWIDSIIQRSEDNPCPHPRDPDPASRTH
human leukocyte cathepsin G, sequence (P08311 21-244): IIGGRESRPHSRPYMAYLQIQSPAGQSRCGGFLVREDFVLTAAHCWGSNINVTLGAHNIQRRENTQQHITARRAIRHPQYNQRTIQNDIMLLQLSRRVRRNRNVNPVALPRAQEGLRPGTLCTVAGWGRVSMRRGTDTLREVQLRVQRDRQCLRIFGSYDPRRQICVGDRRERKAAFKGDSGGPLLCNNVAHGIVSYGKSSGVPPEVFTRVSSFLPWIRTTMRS

Take `CC(C)C[C@H](NC(=O)[C@H](CCCNC(=N)N)NC(=O)CNC(=O)CNC(=O)[C@@H](N)CCCNC(=N)N)C(=O)N[C@H]1CSSC[C@@H](C(=O)N[C@H](C(=O)NCC(=O)N[C@@H](CCCNC(=N)N)C(N)=O)C(C)C)NC(=O)[C@H](C(C)C)NC(=O)[C@@H]2CSSC[C@H](NC(=O)[C@H](Cc3ccc(O)cc3)NC1=O)C(=O)N[C@@H](CCCNC(=N)N)C(=O)N[C@@H](CCCNC(=N)N)C(=O)N[C@@H](CCCNC(=N)N)C(=O)N[C@@H](Cc1ccccc1)C(=O)N2` [PG-1, R-G-G-R-L-C-Y-C-R-R-R-F-C-V-C-V-G-R]: the “activity against C. albicans in NaCl (FIG. 5a)” value in data set [1] was “retain their activity”. In addition, the “antifungal activity against Candida albicans (FIG. 4c)” value in [1] is on record as “effective”. Also, the “Activity against human STD pathogens: Trichomonas vaginalis” value in data set [2] was “Moderately”. Further, the “growth in Diamond's medium after exposure” value in data set [2] (strain C1, 50 μg/ml) is listed as “failed to grow”. Moreover, the “motility of T. vaginallis” value in [2] (strain C1, 50 μg/ml, RPMI+1% fetal calf serum, within a few minutes) is “became stationary”. Further, the “lysis of T. vaginallis” value in [2] (strain C1, 50 μg/ml, over the ensuing 15-30 minutes) is “lysed”. Further, the “susceptibility of metronidazole-resistant clinical isolates” value in [2] (strains MR and TV, 100 and 50 μg/ml) is “susceptible”. Also, the “inhibition of growth of E. coli (FIG. 12a)” value in [3] (absence of protease) is “equally effective”. Further, in [3], the “activity against E. coli in NaCl (FIG. 5b)” value is “retain their activity”. In addition, the “antibacterial activity against E. coli (FIG. 4a)” value in [3] was “more effective against E. coli ML-35P than HNP-1 and only slightly less effective than NP-1”. Further, the “degradation by human leukocyte cathepsin G” value in [4] is “not degraded”. In addition, in data set [5], the “Activity against human STD pathogens: Neisseria gonorrhoeae” value was “Active”. Besides, the “inhibition of growth of L. monocytogenes (FIG. 12d)” value in data set [6] (absence of proteases) is on record as “comparably active”. In data set [6] (presence of trypsin, chymotrypsin), the “inhibition of growth of L. monocytogenes (FIG. 12c)” value is “adversely affected”. Besides, in [6], the “antibacterial activity against Listeria monocytogenes (FIG. 4b)” value is “effective”. The “residual antimicrobial activity against C. albicans, E. coli and L. monocytogenes after pepsin” value in [7] is “fully retained”. Besides, the “antibacterial activity against S. aureus (FIG. 4d)” value in data set [8] is “inhibit the growth”. Moreover, in [9], the “Activity against human STD pathogens: HIV-1” value was “Active”. The “antiviral activity by time of addition” value in [9] (2 hours prior to virus, at the time of virus, or 2 hours after infection) is given as “showed antiviral activity”; in [9] (added 24 hours after infection) it was “no antiviral activity”. Also, the “gel formation in LAL test” value in [10] (1.0 μg peptide in 0.2 ml), in data set [10] (2.5 μg peptide in 0.2 ml), in data set [10] (5 μg peptide in 0.2 ml) and in data set [10] (10 μg peptide in 0.2 ml) was “no gel” in each case. The “gel formation in LAL test, cyclic vs linearalized (Table 3)” value in [10] (2.5 μg peptide) and in data set [10] (5 μg peptide) was “no gel” throughout. The “antibacterial activity against K. pneumoneae (FIG. 4e)” value in [11] is reported as “inhibit the growth”. Moreover, the “Activity against human STD pathogens: Treponema pallidum” value in [12] is given as “Active”. Besides, the “degradation by human leukocyte elastase” value in [13] is given as “not degraded”.

For `CC(C)C[C@H](NC(=O)CNC(=O)CNC(=O)CNC(=O)[C@@H](N)CCCNC(=N)N)C(=O)N[C@H]1CSSC[C@@H](C(=O)N[C@H](C(=O)NCC(=O)N[C@@H](CCCNC(=N)N)C(N)=O)C(C)C)NC(=O)[C@H](C(C)C)NC(=O)[C@@H]2CSSC[C@H](NC(=O)[C@H](Cc3ccc(O)cc3)NC1=O)C(=O)N[C@@H](CCCNC(=N)N)C(=O)N[C@@H](CCCNC(=N)N)C(=O)N[C@@H](CCCNC(=N)N)C(=O)N[C@@H](Cc1ccccc1)C(=O)N2` [PG-3, R-G-G-G-L-C-Y-C-R-R-R-F-C-V-C-V-G-R] (H-RGGGLCYCRRRFCVCVGR-NH2; disulfide 6-15, 8-13; N-terminus assumed), the “activity against Candida albicans in fetal calf serum (FIG. 5c)” value in [1] (90% fetal calf serum) is reported as “retained”. The “activity against C. albicans in NaCl (FIG. 5a)” value in [1] is “retain their activity”. The “antifungal activity against Candida albicans (FIG. 4c)” value in data set [1] was “effective”. Also, the “motility of T. vaginallis” value in data set [2] (25 μg/ml) is recorded as “retained their motility”. In [3], the “activity against E. coli in NaCl (FIG. 5b)” value is listed as “retain their activity”. In data set [3], the “antibacterial activity against E. coli (FIG. 4a)” value was “more effective against E. coli ML-35P than HNP-1 and only slightly less effective than NP-1”. The “degradation by human leukocyte cathepsin G” value in [4] was “not degraded”. Further, in data set [6], the “antibacterial activity against Listeria monocytogenes (FIG. 4b)” value is reported as “effective”. Besides, the “residual antimicrobial activity against C. albicans, E. coli and L. monocytogenes after pepsin” value in [7] is given as “fully retained”. Besides, the “ESTIMATED MINIMAL BACTERICIDAL CONCENTRATIONS” value in data set [14] (25 mM borate buffer) was 25.0 µg/mL; in data set [14] (borate buffer + 120 mM NaCl) it was 7.0 µg/mL; in [14] (borate buffer + EDTA & NaCl) it was 5.7 µg/mL. For the same compound, the “effect of lysozyme on effectiveness against E. coli” value in data set [15] is “enhanced the effectiveness”. Moreover, the “gel formation in LAL test, cyclic vs linearalized (Table 3)” value in data set [10] (2.5 μg peptide) and in data set [10] (5 μg peptide) was “no gel” each time. For the same compound, the “gel formation in LAL test” value is listed as “trace” in data set [10] (2.5 μg peptide in 0.2 ml, listed as nPG-3); “no gel” in [10] (5 μg peptide in 0.2 ml); “no gel” in data set [10] (10 μg peptide in 0.2 ml). Besides, the “ESTIMATED MINIMAL FUNGICIDAL CONCENTRATIONS” value in [16] (25 mM borate buffer) is 32.0 µg/mL; in [16] (borate buffer + 120 mM NaCl), 9.0 µg/mL; in [16] (borate buffer + EDTA & NaCl) it was 8.0 µg/mL. Besides, the “degradation by human leukocyte elastase” value in data set [13] was “not degraded”.

Regarding “R-G-G-R-L-C-Y-C-R-X-R-F-C-V-C-V-G-R (X=NMeG) (RGGRLCYCR[Sar]RFCVCVGR-NH2; ends and bridges not checked) [IB-342]”, in data set [17], the “minimal inhibitory concentration (MIC) MRSA” value worked out at 4. The “minimal inhibitory concentration (MIC) VREF” value in [18] was found to be 0.83. In addition, the “minimal inhibitory concentration (MIC) Psa” value in [19] was found to be 1.67.

On to “R-G-G-R-L-C-Y-C-R-X-R-F-C-V-C-V-G-R-OH (X=NMeG) (RGGRLCYCR[Sar]RFCVCVGR-OH; ends and bridges not checked) [IB-341]”, for which the “minimal inhibitory concentration (MIC) MRSA” value in data set [17] came out at 5.33. Further, in data set [18], the “minimal inhibitory concentration (MIC) VREF” value was 1. Besides, the “minimal inhibitory concentration (MIC) Psa” value in [19] amounted to 2.

The values are drawn from patent US6653442B1, “Protegrins” (priority 1993, dated 2003).
